{
  "source": "patent US20140161917A1",
  "about": "“Use of Nesprin-2 Expression Modulators and Compositions Thereof” (Avon Products, Inc., priority 2012, published 2014)",
  "tested_on": "Nesprin-2 (SYNE2)",
  "test": "Assay for upregulation of Nesprin-2 mRNA (Panomics Quantigene multiplex branched DNA assay) in fibroblasts",
  "assay_type": "cell-based, human",
  "details": "24 hours, vs vehicle control",
  "method": "A variety of botanical extract and synthetic compounds were tested for the ability to up-regulate […]-2 (SYNE2), Gene Accession Number-NM-182914.2. Normal human dermal fibroblasts or keratinocytes were cultured in 96-well tissue culture treated plates, containing appropriate culture medium. Stock solutions of actives were made in an appropriate vehicle (water/Ethanol/DMSO). Cells were treated with test material or respective vehicle control diluted in growth medium for 24 hours in a humidified 37° C. incubator with 10% CO2. The concentrations of each extract are provided based on the dry weight of the given plant extract, by which is meant the weight of the extract after volatile extraction solvents have been removed. After incubation, growth medium from each plate was removed and 100 μL of lysis buffer was added to the wells and placed in 37° C. incubator with 10% CO2 for 30 minutes. At the end of incubation, the cells are collected in freezer plates and placed in -80° C. freezer, until analysis. Changes in mRNA for after treatment were analysed using Panomics Quantigene multiplex assay that employs a branched DNA technology, following manufacturer's instructions (Affymetrix, CA). Percent increase (up-regulation) in mRNA for the […]-2 was calculated by comparing the test results to the control.",
  "data": [
    {"smiles": "C[C@@H]1NC(=O)N[C@@H]1CCCCCC(=O)O", "note": "[D-Desthiobiotin]", "values": [
      {"measurement": "Nesprin-2 (percent up-regulation in mRNA, scaled score)", "setting": "0.0001%", "value": "++++ (0.001%, (>80 (++++))"},
      {"measurement": "Nesprin-2 (percent up-regulation in mRNA, scaled score)", "setting": "0.001%", "value": "++++ (0.001%, (>80 (++++))"}
    ]}
  ]
}
